Measurements as given in the supplement of paper PMC10307832.

How the values were obtained:
Test in all cases: relative viability (nuclei count vs DMSO), 5 days (fraction); higher = more cells survive
BEN = system: BEN
In short: (§1)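 Each reported value is a median over duplicate plates. It expresses relative viability: treated-well nuclei count divided by vehicle-well nuclei count. Lung cancer cell lines in 1536-well plates were dosed by pin tool a day after seeding, alone with one drug or with a fixed anchor-drug dose plus five library-drug doses (not always all listed) in √10 steps, and nuclei were counted after 5 days.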

CAL-12T = system: CAL-12T
In short: as §1

COR-L 105 = system: COR-L 105
In short: as §1

COR-L23 = system: COR-L23
In short: as §1

HARA = system: HARA
In short: as §1

HCC-15 = system: HCC-15
In short: as §1

HCC-366 = system: HCC-366
In short: as §1

HCC-44 = system: HCC-44
In short: as §1

HCC-827 = system: HCC-827
In short: as §1

HOP-62 = system: HOP-62
In short: as §1

LC-2-ad = system: LC-2-ad
In short: as §1

LCLC-97TM1 = system: LCLC-97TM1
In short: as §1

LU99A = system: LU99A
In short: as §1

LXF-289 = system: LXF-289
In short: as §1

NCI-H1993 = system: NCI-H1993
In short: as §1

NCI-H2009 = system: NCI-H2009
In short: as §1

NCI-H2087 = system: NCI-H2087
In short: as §1

NCI-H2126 = system: NCI-H2126
In short: as §1

NCI-H2170 = system: NCI-H2170
In short: as §1

NCI-H727 = system: NCI-H727
In short: as §1

PC-14 = system: PC-14
In short: as §1

PC-3 [JPC-3] = system: PC-3 [JPC-3]
In short: as §1

SK-MES-1 = system: SK-MES-1
In short: as §1

Question: How did the relative viability (BEN; first compound 0.08 µM) turn out when `O=c1[nH]c2ccccc2n1C1CCN(CCCC(c2ccc(F)cc2)c2ccc(F)cc2)CC1` [Pimozide] + O=C(c1cc(Cc2n[nH]c(=O)c3ccccc23)ccc1F)N1CCN(C(=O)C2CC2)CC1 [Olaparib] (partner 8 µM) was run?
Answer: 1.15

Question: And the relative viability (BEN; first compound 0.253 µM)?
Answer: 1.15

Question: And the relative viability (BEN; first compound 0.8 µM)?
Answer: 1.1

Question: And the relative viability (BEN; first compound 2.53 µM)?
Answer: 1.07

Question: And the relative viability (BEN; first compound 8 µM)?
Answer: 1.29

Question: And the relative viability (CAL-12T; first compound 0.08 µM)?
Answer: 0.672

Question: And the relative viability (CAL-12T; first compound 0.253 µM)?
Answer: 0.687

Question: What about the relative viability (CAL-12T; first compound 0.8 µM) of the same compound?
Answer: 0.709

Question: And the relative viability (CAL-12T; first compound 2.53 µM)?
Answer: 0.698

Question: What about the relative viability (CAL-12T; first compound 8 µM) of the same compound?
Answer: 0.623

Question: What about the relative viability (COR-L 105; first compound 0.08 µM) of the same compound?
Answer: 0.664

Question: What about the relative viability (COR-L 105; first compound 0.253 µM) of the same compound?
Answer: 0.659

Question: And the relative viability (COR-L 105; first compound 0.8 µM)?
Answer: 0.83

Question: And the relative viability (COR-L 105; first compound 2.53 µM)?
Answer: 0.696

Question: What about the relative viability (COR-L 105; first compound 8 µM) of the same compound?
Answer: 0.664

Question: What about the relative viability (COR-L23; first compound 0.08 µM) of the same compound?
Answer: 0.325

Question: What about the relative viability (COR-L23; first compound 0.253 µM) of the same compound?
Answer: 0.308

Question: And the relative viability (COR-L23; first compound 0.8 µM)?
Answer: 0.386

Question: And the relative viability (COR-L23; first compound 2.53 µM)?
Answer: 0.383

Question: And the relative viability (COR-L23; first compound 8 µM)?
Answer: 0.336

Question: And the relative viability (HARA; first compound 0.08 µM)?
Answer: 0.785

Question: What about the relative viability (HARA; first compound 0.253 µM) of the same compound?
Answer: 0.764

Question: What about the relative viability (HARA; first compound 0.8 µM) of the same compound?
Answer: 0.746

Question: What about the relative viability (HARA; first compound 2.53 µM) of the same compound?
Answer: 0.74

Question: And the relative viability (HARA; first compound 8 µM)?
Answer: 0.749

Question: And the relative viability (HCC-15; first compound 0.08 µM)?
Answer: 0.72

Question: And the relative viability (HCC-15; first compound 0.253 µM)?
Answer: 0.672

Question: What about the relative viability (HCC-15; first compound 0.8 µM) of the same compound?
Answer: 0.717

Question: And the relative viability (HCC-15; first compound 2.53 µM)?
Answer: 0.712

Question: And the relative viability (HCC-15; first compound 8 µM)?
Answer: 0.738

Question: And the relative viability (HCC-366; first compound 0.08 µM)?
Answer: 0.355

Question: And the relative viability (HCC-366; first compound 0.253 µM)?
Answer: 0.332

Question: And the relative viability (HCC-366; first compound 0.8 µM)?
Answer: 0.373

Question: And the relative viability (HCC-366; first compound 2.53 µM)?
Answer: 0.323

Question: What about the relative viability (HCC-366; first compound 8 µM) of the same compound?
Answer: 0.334

Question: And the relative viability (HCC-44; first compound 0.08 µM)?
Answer: 1

Question: And the relative viability (HCC-44; first compound 0.253 µM)?
Answer: 1.02

Question: What about the relative viability (HCC-44; first compound 0.8 µM) of the same compound?
Answer: 0.938

Question: What about the relative viability (HCC-44; first compound 2.53 µM) of the same compound?
Answer: 0.973

Question: And the relative viability (HCC-44; first compound 8 µM)?
Answer: 0.931

Question: What about the relative viability (HCC-827; first compound 0.253 µM) of the same compound?
Answer: 0.627

Question: What about the relative viability (HCC-827; first compound 0.8 µM) of the same compound?
Answer: 0.7

Question: What about the relative viability (HCC-827; first compound 2.53 µM) of the same compound?
Answer: 0.747

Question: What about the relative viability (HCC-827; first compound 8 µM) of the same compound?
Answer: 0.678

Question: What about the relative viability (HOP-62; first compound 0.08 µM) of the same compound?
Answer: 0.588

Question: What about the relative viability (HOP-62; first compound 0.253 µM) of the same compound?
Answer: 0.342

Question: And the relative viability (HOP-62; first compound 0.8 µM)?
Answer: 0.356

Question: And the relative viability (HOP-62; first compound 2.53 µM)?
Answer: 0.39

Question: What about the relative viability (HOP-62; first compound 8 µM) of the same compound?
Answer: 0.56

Question: And the relative viability (LC-2-ad; first compound 0.08 µM)?
Answer: 0.68

Question: What about the relative viability (LC-2-ad; first compound 0.253 µM) of the same compound?
Answer: 0.731

Question: And the relative viability (LC-2-ad; first compound 0.8 µM)?
Answer: 0.69

Question: And the relative viability (LC-2-ad; first compound 2.53 µM)?
Answer: 0.668

Question: What about the relative viability (LC-2-ad; first compound 8 µM) of the same compound?
Answer: 0.673

Question: What about the relative viability (LCLC-97TM1; first compound 0.08 µM) of the same compound?
Answer: 0.387

Question: And the relative viability (LCLC-97TM1; first compound 0.253 µM)?
Answer: 0.314

Question: And the relative viability (LCLC-97TM1; first compound 0.8 µM)?
Answer: 0.404

Question: What about the relative viability (LCLC-97TM1; first compound 2.53 µM) of the same compound?
Answer: 0.222

Question: And the relative viability (LCLC-97TM1; first compound 8 µM)?
Answer: 0.269

Question: And the relative viability (LU99A; first compound 0.08 µM)?
Answer: 0.251

Question: What about the relative viability (LU99A; first compound 0.8 µM) of the same compound?
Answer: 0.26

Question: What about the relative viability (LU99A; first compound 2.53 µM) of the same compound?
Answer: 0.297

Question: And the relative viability (LU99A; first compound 8 µM)?
Answer: 0.254

Question: What about the relative viability (LXF-289; first compound 0.08 µM) of the same compound?
Answer: 1.09

Question: And the relative viability (LXF-289; first compound 0.253 µM)?
Answer: 1.04

Question: And the relative viability (LXF-289; first compound 0.8 µM)?
Answer: 1.01

Question: What about the relative viability (LXF-289; first compound 2.53 µM) of the same compound?
Answer: 0.937

Question: And the relative viability (LXF-289; first compound 8 µM)?
Answer: 1.03

Question: What about the relative viability (NCI-H1993; first compound 0.08 µM) of the same compound?
Answer: 0.95

Question: And the relative viability (NCI-H1993; first compound 0.253 µM)?
Answer: 1.12

Question: And the relative viability (NCI-H1993; first compound 0.8 µM)?
Answer: 0.918

Question: And the relative viability (NCI-H1993; first compound 2.53 µM)?
Answer: 1.05

Question: And the relative viability (NCI-H1993; first compound 8 µM)?
Answer: 1.13

Question: And the relative viability (NCI-H2009; first compound 0.08 µM)?
Answer: 0.761

Question: And the relative viability (NCI-H2009; first compound 0.253 µM)?
Answer: 0.649

Question: And the relative viability (NCI-H2009; first compound 0.8 µM)?
Answer: 0.769

Question: And the relative viability (NCI-H2009; first compound 2.53 µM)?
Answer: 0.683

Question: And the relative viability (NCI-H2009; first compound 8 µM)?
Answer: 0.629

Question: And the relative viability (NCI-H2087; first compound 0.08 µM)?
Answer: 0.679

Question: And the relative viability (NCI-H2087; first compound 0.253 µM)?
Answer: 0.582

Question: And the relative viability (NCI-H2087; first compound 2.53 µM)?
Answer: 0.579

Question: What about the relative viability (NCI-H2087; first compound 8 µM) of the same compound?
Answer: 0.45

Question: What about the relative viability (NCI-H2126; first compound 0.08 µM) of the same compound?
Answer: 0.922

Question: And the relative viability (NCI-H2126; first compound 0.253 µM)?
Answer: 0.89

Question: What about the relative viability (NCI-H2126; first compound 0.8 µM) of the same compound?
Answer: 0.944

Question: And the relative viability (NCI-H2126; first compound 2.53 µM)?
Answer: 0.92

Question: And the relative viability (NCI-H2126; first compound 8 µM)?
Answer: 0.858

Question: What about the relative viability (NCI-H2170; first compound 0.08 µM) of the same compound?
Answer: 0.592

Question: And the relative viability (NCI-H2170; first compound 0.253 µM)?
Answer: 0.554

Question: What about the relative viability (NCI-H2170; first compound 0.8 µM) of the same compound?
Answer: 0.608

Question: What about the relative viability (NCI-H2170; first compound 2.53 µM) of the same compound?
Answer: 0.593

Question: What about the relative viability (NCI-H2170; first compound 8 µM) of the same compound?
Answer: 0.543

Question: What about the relative viability (NCI-H727; first compound 0.08 µM) of the same compound?
Answer: 0.731

Question: And the relative viability (NCI-H727; first compound 0.253 µM)?
Answer: 0.674

Question: And the relative viability (NCI-H727; first compound 0.8 µM)?
Answer: 0.725

Question: And the relative viability (NCI-H727; first compound 2.53 µM)?
Answer: 0.549

Question: What about the relative viability (NCI-H727; first compound 8 µM) of the same compound?
Answer: 0.739

Question: And the relative viability (PC-14; first compound 0.253 µM)?
Answer: 0.276

Question: And the relative viability (PC-14; first compound 0.8 µM)?
Answer: 0.225

Question: And the relative viability (PC-14; first compound 2.53 µM)?
Answer: 0.215

Question: And the relative viability (PC-14; first compound 8 µM)?
Answer: 0.209

Question: And the relative viability (PC-3 [JPC-3]; first compound 0.253 µM)?
Answer: 1.09

Question: And the relative viability (PC-3 [JPC-3]; first compound 0.8 µM)?
Answer: 1.1

Question: And the relative viability (PC-3 [JPC-3]; first compound 2.53 µM)?
Answer: 1.08

Question: And the relative viability (PC-3 [JPC-3]; first compound 8 µM)?
Answer: 1

Question: And the relative viability (SK-MES-1; first compound 0.08 µM)?
Answer: 0.715

Question: And the relative viability (SK-MES-1; first compound 0.253 µM)?
Answer: 0.686

Question: And the relative viability (SK-MES-1; first compound 0.8 µM)?
Answer: 0.749

Question: And the relative viability (SK-MES-1; first compound 2.53 µM)?
Answer: 0.697

Question: And the relative viability (SK-MES-1; first compound 8 µM)?
Answer: 0.619
